Source: US20190111154A1, “TREATMENT OF NEUROPATHY WITH DNA CONSTRUCT EXPRESSING HGF ISOFORMS WITH REDUCED INTERFERENCE FROM GABAPENTINOIDS” (ViroMed Co., Ltd., priority 2017, published 2019)

Tests used:
[1] = Von Frey filament test in chronic constriction injury (CCI) mice, Example 1; type: in vivo; conditions: for paw withdrawal frequency: day 14-16
Experimental: FIG. 2 illustrates the experimental procedure for testing effects of gabapentin on VM202-mediated pain reduction using chronic constriction injury (CCI) mice. Surgical procedure on sciatic nerve (CCI or sham) was performed and a plasmid (pCK or VM202) was administered to 5-week-old male mice on day 0, gabapentin or PBS was injected daily to the mice from day 1 to day 15, and their pain levels were measured by von Frey filament test starting on day 14 through 16.
In order to explore the mechanisms behind the gabapentinoid interference with VM202 efficacy, we tested effects of gabapentin on VM202-mediated pain reduction in chronic constriction injury (CCI) mice as presented in FIG. 2. CCI is an animal model widely used for studying neuropathic pain. Specifically, chronic constriction injury (CCI) was introduced by applying loosely constrictive ligatures to the sciatic nerve of 5 week-old male mice. The CCI mice were divided into three groups—in the first group, 200 μg of pCK vector was administered into the cranial thigh muscles as a negative control for VM202 administration (pCK is the vector used in VM202, but lacks the HGF vector payload), in the second group, 200 μg of VM202 was administered into the cranial thigh muscles, and in the third group, no DNA construct was administered. Animals in each of the first and the second group were further divided into two subgroups, with the first subgroup injected daily with 100 mg/kg of gabapentin and the second subgroup injected daily with PBS as a negative control for gabapentin administration, via intraperitoneal cavity for two weeks. The sham group without CCI was also maintained and daily injected with PBS. From day 14 to day 16, Von Frey filament test was performed to assess the level of neuropathic pain (mechanical allodynia).

c-Jun = assay: Western blot of c-Jun in dorsal root ganglion (DRG) cells of nerve crush mice; type: in vivo, mouse
From the text: Expressions of c-Jun (top) and GAPDH (bottom) were detected by antibodies specific to each protein. FIG. 7B provides relative levels of c-Jun expression in each sample, calculated by measuring band intensity of c-Jun and comparing the intensity with the band intensity of GAPDH.
c-Jun is well established to be a key factor involved in nerve regeneration, and has been used as a marker for that process. Expression of c-Jun protein prepared from dorsal root ganglion (DRG) cells obtained from a sham mouse (“Sham”) or from a nerve crush mouse (“Crush”) was measured by Western blot assay, using an antibody against c-Jun. […] VM202 treatment further increased c-Jun expression level by 1.3-fold (compare lanes 2 and 3 of FIG. 7A), but such induction was not observed when mice were exposed to gabapentin (compare lanes 5 and 6 of FIG. 7A). The western blot assay results were quantified based on the band intensities and presented in FIG. 7B for their analysis and comparison.

[2] = cited from earlier work
[3] = Nerve pinch test in nerve crush mouse model; type: in vivo, mice; conditions: day 7
Experimental: FIG. 5 illustrates the experimental procedure for testing gabapentin effects on VM202-mediated nerve regeneration in a nerve crush mouse model. Nerve crush was induced and VM202 administered to 9-week old male C57BL/6 mice on day 1, gabapentin was injected daily from day 2 to day 6, and nerve pinch test was conducted on day 7.
Effects of gabapentinoids on VM202-mediated nerve regeneration were tested in a nerve crush animal model. The protocol is schematized in FIG. 5. Specifically, nerve crush was introduced to 9-week-old C57BL/6 mice by giving brief pressure to their sciatic nerve. On the same day (day 1), the mice were injected with 200 μg of VM202 to the cranial thigh muscles right after the nerve crush. From the next day (day 2), 100 mg/kg gabapentin was administered daily.
On day 7, a nerve pinch test was performed to quantify functional recovery of the injured nerve. For the nerve pinch test, light anesthesia was induced and sciatic nerve was exposed. The injured nerve was pinched from its distal to proximal direction until a reflex response was observed. The distance was then measured between the injury site and the foremost site that produced the response. The distance measured by this method represents the length of regenerated nerves, which is provided on the y-axis in FIG. 6.

[4] = Von Frey filament test in CCI mice, gabapentin at different time points, Example 4; type: in vivo
Experimental: The effects of gabepentinoid administration at different time points relative to VM202 administration were tested in chronic constriction injury (CCI) mice.
After CCI surgery, the development of mechanical allodynia was assessed using a Von Frey's filament test once a week, and the level of pain reduction fold was calculated based on the mechanical frequency evaluation. Briefly, animals were placed individually in a cylinder on top of a metal mesh floor for adaptation. To examine the frequency of mechanical sensitivity, mice were assessed by stimulating the hind paw using constant thickness of the filament (0.16 g).
To further understand the delay required to prevent the interference, in a further experiment, CCI mice injected with VM202 were treated with gabapentin after delays for various periods ranging from 0 to 14 days. CCI mice were injected with VM202 or pCK on day 0. The CCI mice were treated with no gabapentin (CONT1, CONT2) or additionally treated with gabapentin starting on day 0 (on the day of VM202 injection, GP1) or day 3 (GP2), day 7 (GP3) or day 10 (GP4) after VM202 injection.
Two weeks after CCI surgery and VM202 or pCK injection, the development of mechanical allodynia was assessed using a Von Frey's filament test, and the level of pain reduction fold was calculated based on the mechanical frequency evaluation for each animal.

[5] = CCI mice given pCK and daily 100 mg/kg gabapentin i.p.

NCC1(CC(=O)O)CCCCC1 [gabapentin]
duration of pain relieving effects [1, 5]: about 6 hours
pain level (paw withdrawal frequency) [1, 5]: decreases in pain levels immediately after the gabapentin administration

VM202: plasmid DNA, HGF-X7 cloned into the pCK vector (SEQ ID NO: 11), expresses flHGF and dHGF; KCCM-10361
increase of c-Jun expression level versus nerve crush mice given pCK (c-Jun; daily PBS (lanes 2 and 3)): 1.3 fold
induction of c-Jun expression versus nerve crush mice given pCK (c-Jun; mice exposed to gabapentin (lanes 5 and 6)): not observed
pain in patients with diabetic peripheral neuropathy ([2]; injections into the calf muscle, two days of treatment spaced two weeks apart): significantly reduce pain
reduction in pain from baseline, patients not on Lyrica and/or Neurontin versus total patient group ([2]; low dose of VM202 (total 16 mg), 3, 6, 9 months): larger reduction in pain
pain relief in patients not taking pregabalin or gabapentin versus patients taking a gabapentinoid ([2]; post hoc analysis of phase II data): more effective in relieving pain in patients not taking pregabalin or gabapentin
duration of symptomatic relief with improvement in quality of life ([2]; two days of treatment, spaced two weeks apart): 3 months
pain level (paw withdrawal frequency) ([1]; CCI mice, 200 μg VM202, no gabapentin, throughout the experimental period): significantly lower pain levels
paw withdrawal frequency ([1]; CCI mice, 200 μg VM202 i.m. plus daily 100 mg/kg gabapentin i.p.): 46.1%
paw withdrawal frequency ([1]; CCI mice, 200 μg VM202 i.m., no gabapentin): 30.56%
time over which pain level increased close to the pCK-PBS level after gabapentin injection ([1]; VM202-treated CCI mice, daily 100 mg/kg gabapentin): about 10 hours
compromise of the pain reduction effect of VM202 by gabapentin ([1]; daily 100 mg/kg gabapentin i.p.): more than 50%
length of regenerated nerve ([3]; 200 μg VM202, daily 100 mg/kg gabapentin): 1.95±0.3 mm
length of regenerated nerve ([3]; 200 μg VM202, daily PBS): about 4±0.2 mm
length of regenerated nerve, fold versus pCK control ([3]; daily PBS): approximately 2.7 fold
increase of nerve regeneration, fold versus pCK control group ([3]; in the presence of daily gabapentin): 2.3 fold
pain level versus CCI-pCK ([4]; CCI-VM202-Gaba1: gabapentin from day 0 to day 14): no effects
pain level from day 14 to 28, after gabapentin stopped ([4]; CCI-VM202-Gaba1: gabapentin from day 0 to day 14, none afterwards): continued to have high level of pains
pain relieving effects ([4]; CCI-VM202-Gaba2: gabapentin from day 15 to day 28): significant and maintained
pain level versus CCI-pCK ([4]; CCI-VM202: 200 μg/head VM202 day 0, no gabapentin): significantly reduced the pain level
pain reducing effect two weeks after CCI surgery ([4]; CONT2: no gabapentin): significant pain relief
pain reducing effect two weeks after CCI surgery ([4]; GP1: 100 mg/kg gabapentin started day 0): did not have significant pain reducing effects
pain reducing effect two weeks after CCI surgery ([4]; GP2: 100 mg/kg gabapentin started day 3): did not have significant pain reducing effects
pain reducing effect two weeks after CCI surgery ([4]; GP3: 100 mg/kg gabapentin started day 7): did not have significant pain reducing effects
pain reducing effect two weeks after CCI surgery ([4]; GP4: 100 mg/kg gabapentin started day 10): significant pain relief
